Test results: ChEMBL document CHEMBL4673324, “Xanthones for melanogenesis inhibition: Molecular docking and QSAR studies to understand their anti-tyrosinase activity” (Bioorg Med Chem, 2021)

How the values were obtained:
Mushroom tyrosinase = Mushroom tyrosinase (Agaricus bisporus, UniProt O42713+Q00024+C7FF04+C7FF05); assay: Inhibition of mushroom tyrosinase using tyrosine as substrate incubated for 20 mins followed by substrate addition and measured every 10 mins for 30 mins
[1] = Inhibition of Elastase (unknown origin) using N-methoxysuccinyl-Ala-Ala-Pro-Val-p-nitroanilide as substrate incubated for 20 mins followed by substrate addition and measured after 40 mins; set-up: species or system Homo sapiens
[2] = compound: Cc1cc(O)c(O)c2oc3cc(O)ccc3c(=O)c12; assay: Uncompetitive inhibition of Tyrosinase (unknown origin) assessed as Michaelis-Menten constant at 3.3 uM using tyrosine as substrate incubated for 20 mins followed by substrate addition and measured every 10 mins for 30 mins by Lineweaver-Burk plot analysis (reference value: […] +/- […] mM); details: Homo sapiens, time 50.0 min
[3] = compound: Cc1cc(O)c(O)c2oc3cc(O)ccc3c(=O)c12; assay: Uncompetitive inhibition of Tyrosinase (unknown origin) assessed as maximal velocity at 6.60 uM using tyrosine as substrate incubated for 20 mins followed by substrate addition and measured every 10 mins for 30 mins by Lineweaver-Burk plot analysis (reference value: […] +/- […] /min); details: Homo sapiens; dose 6.6 µM, time 50.0 min
[4] = compound: COc1cc(C)c2c(=O)c3ccccc3oc2c1OC; assay: Uncompetitive inhibition of Tyrosinase (unknown origin) assessed as Michaelis-Menten constant at 8 uM using tyrosine as substrate incubated for 20 mins followed by substrate addition and measured every 10 mins for 30 mins by Lineweaver-Burk plot analysis (reference value: […] +/- […] mM); details: Homo sapiens, time 50.0 min
[5] = compound: COc1cc(C)c2c(=O)c3ccccc3oc2c1OC; assay: Uncompetitive inhibition of Tyrosinase (unknown origin) assessed as maximal velocity at 8 uM using tyrosine as substrate incubated for 20 mins followed by substrate addition and measured every 10 mins for 30 mins by Lineweaver-Burk plot analysis (reference value: […] +/- […] /min); details: Homo sapiens, time 50.0 min
[6] = compound: Cc1cc(O)c(O)c2oc3cc(O)ccc3c(=O)c12; assay: Uncompetitive inhibition of Tyrosinase (unknown origin) assessed as Michaelis-Menten constant at 13.2 uM using tyrosine as substrate incubated for 20 mins followed by substrate addition and measured every 10 mins for 30 mins by Lineweaver-Burk plot analysis (reference value: […] +/- […] mM); details: Homo sapiens, time 50.0 min
[7] = compound: COc1cc(C)c2c(=O)c3ccccc3oc2c1OC; assay: Uncompetitive inhibition of Tyrosinase (unknown origin) assessed as Michaelis-Menten constant at 4 uM using tyrosine as substrate incubated for 20 mins followed by substrate addition and measured every 10 mins for 30 mins by Lineweaver-Burk plot analysis (reference value: […] +/- […] mM); details: Homo sapiens, time 50.0 min
[8] = compound: Cc1cc(O)c(O)c2oc3cc(O)ccc3c(=O)c12; assay: Uncompetitive inhibition of Tyrosinase (unknown origin) assessed as Michaelis-Menten constant at 6.6 uM using tyrosine as substrate incubated for 20 mins followed by substrate addition and measured every 10 mins for 30 mins by Lineweaver-Burk plot analysis (reference value: […] +/- […] mM); details: Homo sapiens, time 50.0 min
[9] = compound: Cc1cc(O)c(O)c2oc3cc(O)ccc3c(=O)c12; assay: Uncompetitive inhibition of Tyrosinase (unknown origin) assessed as Michaelis-Menten constant at 1.65 uM using tyrosine as substrate incubated for 20 mins followed by substrate addition and measured every 10 mins for 30 mins by Lineweaver-Burk plot analysis (reference value: […] +/- […] mM); details: Homo sapiens, time 50.0 min
[10] = compound: Cc1cc(O)c(O)c2oc3cc(O)ccc3c(=O)c12; assay: Uncompetitive inhibition of Tyrosinase (unknown origin) assessed as maximal velocity at 13.2 uM using tyrosine as substrate incubated for 20 mins followed by substrate addition and measured every 10 mins for 30 mins by Lineweaver-Burk plot analysis (reference value: […] +/- […] /min); details: Homo sapiens, time 50.0 min
[11] = compound: COc1cc(C)c2c(=O)c3ccccc3oc2c1OC; assay: Uncompetitive inhibition of Tyrosinase (unknown origin) assessed as Michaelis-Menten constant at 16 uM using tyrosine as substrate incubated for 20 mins followed by substrate addition and measured every 10 mins for 30 mins by Lineweaver-Burk plot analysis (reference value: […] +/- […] mM); details: Homo sapiens, time 50.0 min
[12] = compound: COc1cc(C)c2c(=O)c3ccccc3oc2c1OC; assay: Uncompetitive inhibition of Tyrosinase (unknown origin) assessed as maximal velocity at 4 uM using tyrosine as substrate incubated for 20 mins followed by substrate addition and measured every 10 mins for 30 mins by Lineweaver-Burk plot analysis (reference value: […] +/- […] /min); details: Homo sapiens, time 50.0 min
[13] = compound: Cc1cc(O)c(O)c2oc3cc(O)ccc3c(=O)c12; assay: Uncompetitive inhibition of Tyrosinase (unknown origin) assessed as maximal velocity at 3.30 uM using tyrosine as substrate incubated for 20 mins followed by substrate addition and measured every 10 mins for 30 mins by Lineweaver-Burk plot analysis (reference value: […] +/- […] /min); details: Homo sapiens; dose 3.3 µM, time 50.0 min
[14] = compound: Cc1cc(O)c(O)c2oc3cc(O)ccc3c(=O)c12; assay: Uncompetitive inhibition of Tyrosinase (unknown origin) assessed as maximal velocity at 1.65 uM using tyrosine as substrate incubated for 20 mins followed by substrate addition and measured every 10 mins for 30 mins by Lineweaver-Burk plot analysis (reference value: […] +/- […] /min); details: Homo sapiens, time 50.0 min
[15] = compound: COc1cc(C)c2c(=O)c3ccccc3oc2c1OC; assay: Uncompetitive inhibition of Tyrosinase (unknown origin) assessed as Michaelis-Menten constant at 2 uM using tyrosine as substrate incubated for 20 mins followed by substrate addition and measured every 10 mins for 30 mins by Lineweaver-Burk plot analysis (reference value: […] +/- […] mM); details: Homo sapiens, time 50.0 min
[16] = compound: COc1cc(C)c2c(=O)c3ccccc3oc2c1OC; assay: Uncompetitive inhibition of Tyrosinase (unknown origin) assessed as maximal velocity at 2 uM using tyrosine as substrate incubated for 20 mins followed by substrate addition and measured every 10 mins for 30 mins by Lineweaver-Burk plot analysis (reference value: […] +/- […] /min); details: Homo sapiens, time 50.0 min
[17] = compound: COc1cc(C)c2c(=O)c3ccccc3oc2c1OC; assay: Uncompetitive inhibition of Tyrosinase (unknown origin) assessed as maximal velocity at 16 uM using tyrosine as substrate incubated for 20 mins followed by substrate addition and measured every 10 mins for 30 mins by Lineweaver-Burk plot analysis (reference value: […] +/- […] /min); details: Homo sapiens, time 50.0 min

With `Cc1cc(O)c(O)c2oc3ccccc3c(=O)c12` the IC50 (Mushroom tyrosinase) was 8.93 µM.

`O=c1c2ccccc2oc2cc(O)ccc12` showed an IC50 (Mushroom tyrosinase) of 9.26 µM.

For `COc1ccc2c(=O)c3ccccc3oc2c1`, the IC50 (Mushroom tyrosinase) was 5.14 µM.

`COc1ccc2c(=O)c3c(C)c(Br)c(OC)c(OC)c3oc2c1` showed an IC50 (Mushroom tyrosinase) of 5.57 µM.

Molecule `O=c1c2ccc(O)cc2oc2cc(O)ccc12` has an IC50 (Mushroom tyrosinase) of 4.42 µM and an IC50 [1] of 91.8 µM.

With `O=c1c2ccccc2oc2cc(O)c(O)cc12` the IC50 (Mushroom tyrosinase) was 5.7 µM.

`O=c1c2ccccc2oc2ccc(O)cc12` showed an IC50 (Mushroom tyrosinase) of 5.6 µM.

Molecule `O=c1c2ccccc2oc2c(O)c(O)ccc12` [3,4-DIHYDROXYXANTHONE] has an IC50 (Mushroom tyrosinase) of 5.12 µM.

In the case of `O=c1c2ccccc2oc2ccc(O)c(O)c12`, the IC50 (Mushroom tyrosinase) is reported as 7.8 µM.

For `O=c1c2ccccc2oc2ccccc12` [XANTHONE], the IC50 (Mushroom tyrosinase) was 8.84 µM.

In the case of `COc1cc(C)c2c(=O)c3ccccc3oc2c1OC`, the IC50 (Mushroom tyrosinase) is reported as 2 µM.

For `COc1ccc2oc3ccccc3c(=O)c2c1`, the IC50 (Mushroom tyrosinase) was 8.47 µM.

With `COc1ccc2c(=O)c3c(C)cc(OC)c(OC)c3oc2c1` the IC50 (Mushroom tyrosinase) was 2.24 µM.

Molecule `COc1c(O)ccc2c(=O)c3ccccc3oc12` has an IC50 (Mushroom tyrosinase) of 3.81 µM.

Work on `Cc1cc(O)c(O)c2oc3cc(O)ccc3c(=O)c12` yielded an IC50 (Mushroom tyrosinase) of 3.28 µM.

Molecule `COc1cc2oc3ccccc3c(=O)c2cc1OC` has an IC50 (Mushroom tyrosinase) of 8.29 µM.

Molecule `COc1cc(C=O)c2c(=O)c3ccc(O)cc3oc2c1OC` has an IC50 (Mushroom tyrosinase) of 3.16 µM.

Molecule `COc1cc(C=O)c2c(=O)c3ccccc3oc2c1OC` has an IC50 (Mushroom tyrosinase) of 29.13 µM.

`COc1cccc2oc3ccccc3c(=O)c12` gave an IC50 (Mushroom tyrosinase) of 5.14 µM.

Work on `COc1ccc2c(=O)c3c(C)c(Cl)c(OC)c(OC)c3oc2c1` yielded an IC50 (Mushroom tyrosinase) of 1.9 µM.

H-MAAPVCK-OH gave an IC50 [1] of 0.26 µM.

Work on `O=Cc1cc(O)c(O)c2oc3ccccc3c(=O)c12` yielded an IC50 (Mushroom tyrosinase) of 89.37 µM.

Work on `COc1cccc2c(=O)c3ccccc3oc12` yielded an IC50 (Mushroom tyrosinase) of 5.33 µM.

With `COc1ccc2oc3ccccc3c(=O)c2c1OC` the IC50 (Mushroom tyrosinase) was 4.02 µM.

Work on `COc1ccc2c(=O)c3ccccc3oc2c1O` yielded an IC50 (Mushroom tyrosinase) of 5.2 µM.

`COc1cc(C(Br)Br)c2c(=O)c3ccccc3oc2c1OC` showed an IC50 (Mushroom tyrosinase) of 3.37 µM.

With `O=c1c2cc(O)ccc2oc2cccc(O)c12` the IC50 (Mushroom tyrosinase) was 4.52 µM.

With `COc1ccc2c(=O)c3ccccc3oc2c1OC` the IC50 (Mushroom tyrosinase) was 5.12 µM.

`O=c1c2ccccc2oc2c(O)cccc12` showed an IC50 (Mushroom tyrosinase) of 8.46 µM.

With `COc1c(O)cc2oc3ccccc3c(=O)c2c1O` the IC50 (Mushroom tyrosinase) was 3.01 µM.

B1: Tyrosinase (Homo sapiens), P14679 (protein)
chain: MLLAVLYCLLWSFQTSAGHFPRACVSSKNLMEKECCPPWSGDRSPCGQLSGRGSCQNILLSNAPLGPQFPFTGVDDRESWPSVFYNRTCQCSGNFMGFNCGNCKFGFWGPNCTERRLLVRRNIFDLSAPEKDKFFAYLTLAKHTISSDYVIPIGTYGQMKNGSTPMFNDINIYDLFVWMHYYVSMDALLGGSEIWRDIDFAHEAPAFLPWHRLFLLRWEQEIQKLTGDENFTIPYWDWRDAEKCDICTDEYMGGQHPTNPNLLSPASFFSSWQIVCSRLEEYNSHQSLCNGTPEGPLRRNPGNHDKSRTPRLPSSADVEFCLSLTQYESGSMDKAANFSFRNTLEGFASPLTGIADASQSSMHNALHIYMNGTMSQVQGSANDPIFLLHHAFVDSIFEQWLRRHRPLQEVYPEANAPIGHNRESYMVPFIPLYRNGDFFISSKDLGYDYSYLQDSDPDSFQDYIKSYLEQASRIWSWLLGAAMVGAVLTALLAGLVSLLCRHKRKQLPEEKQPLLMEKEDYHSLYQSHL
For B1, the Km [2] was 51 µM, the Vmax [3] was 0.0032 min⁻¹ and the Km [4] was 27 µM. For the same molecule, the Vmax [5] was 0.0025 min⁻¹, the Km [6] was 28 µM and the Km [7] was 41 µM. The Km [8] was 46 µM, the Km [9] was 63 µM and the Vmax [10] was 0.0028 min⁻¹. The Km [11] was 26 µM, the Vmax [12] was 0.0031 min⁻¹ and the Vmax [13] was 0.0035 min⁻¹. The Vmax [14] was 0.0037 min⁻¹, the Km [15] was 53 µM and the Vmax [16] was 0.0036 min⁻¹. The Vmax [17] was 0.0019 min⁻¹.
